Experiment [1] concerns Human gastric cancer cells (MKN-45). The experiment is described as follows: Inhibitory activity against the proliferation of human gastric cancer cells (MKN-45). In kind it is cell-based. The note with it: 72 h, read-out: IC50, concentration necessary to inhibit the cell proliferation by 50%, MKN-45, 1% FBS RPMI1640, 3 days, Cell Counting Kit-8. As for the experimental part:
Pharmacological Test Example 2:Inhibitory Activity Against the Proliferation of Human Gastric Cancer Cells (MKN-45)
Human gastric cancer cells (MKN-45) were suspended in a 1% FBS-containing RPMI1640 medium (purchased from Sigma). The cell suspension (1×10^4 cells/ml) was added in a 96-well plate for cell culture (purchased from NUNC, Production No. 167008) at 0.1 ml/well, and then cultured in a 5% CO2 incubator (37° C.) overnight. After the culture, each well was supplied with 0.1 ml of a test substance diluted with a 1% FBS-containing RPMI1640 medium, followed by culturing in a 5% CO2 incubator (37° C.) for 3 days. After the culture, each well was supplied with 10 μl of Cell Counting Kit-8 (purchased from DOJINDO, Production No. 343-07623), followed by incubation in a 5% CO2 incubator (37° C.) for about 1.5 hrs. After the incubation, using the Plate Reader MTP-500 (Corona Electric), the absorbance of each well was determined at a measurement wavelength of 450 nm and a reference wavelength of 660 nm.

For experiment [2], the system named is HGFR autophosphorylation. The experiment is described as follows: Inhibitory activity against the HGFR autophosphorylation using ELISA. The settings on record: Homo sapiens, read-out: IC50, concentration necessary to inhibit HGFR autophosphorylation activity by 50%, MKN-45 cells, 1 hr treatment. In kind it is cell-based. As for the experimental part:
Pharmacological Test Example 3:Inhibitory Activity Against the HGFR Autophosphorylation Using ELISA
1. Preparation of Cell Extract
Human gastric cancer cells (MKN-45) were suspended in a 1% FBS-containing RPMI1640 medium (purchased from Sigma). The cell suspension (1×10^5 cells/ml) was put in a 96-well plate for cell culture (purchased from NUNC, Production No. 167008) at 0.1 ml/well, and then cultured in a 5% CO2 incubator (37° C.) overnight. After the culture, from each well was removed the supernatant solution, followed by adding 0.05 ml of a 1% FBS-containing RPMI1640 medium. […]
Each well of the plate prepared in 2. was washed three times with 200 μl of PBS, and supplied with 150 μl of 3% BSA/PBS, followed by incubating at room temperature for 2 hrs. […] Each well was supplied with 70 μl of 1 M phosphoric acid, and using the Plate Reader MTP-500 (Corona Electric), the absorbance of the well was instantly determined at a measurement wavelength of 450 nm. While defining the absorbance of a well supplied with the cell extract having no test substance as 100% HGFR autophosphorylation activity, and the absorbance, of a well supplied with 50 μl of the lysis buffer as 0% HGFR autophosphorylation activity, the HGFR autophosphorylation activity (%) was calculated for each well. […]
A general note: ELISA stands for enzyme-linked immunosorbent assay.

This passage reports IC50 results from patent US8377938B2, “Phenoxypyridine derivative salts and crystals thereof, and process for preparing the same” (Eisai R&D Management Co., Ltd., priority 2007, dated 2013).

`CN1CCN(C2CCN(C(=O)Nc3cc(Oc4ccc(NC(=O)C5(C(=O)Nc6ccc(F)cc6)CC5)c(F)c4)ccn3)CC2)CC1` [compound 1, N-(2-fluoro-4-{[2-({[4-(4-methylpiperazin-1-yl)piperidin-1-yl]carbonyl}amino)pyridin-4-yl]oxy}phenyl)-N′-(4-fluorophenyl)cyclopropane-1,1-dicarboxyamide]: the IC50 in experiment [1] was 17 nM; in experiment [2], 16 nM.
The matching figures for `O=C(Nc1cc(Oc2cc(F)c(NC(=O)C3(C(=O)Nc4ccc(F)cc4)CC3)cc2F)ccn1)N1CC(O)C1` [compound 2, N-{2,5-difluoro-4-[(2-{[(3-hydroxyazetidin-1-yl)carbonyl]amino}pyridin-4-yl)oxy]phenyl}-N′-(4-fluorophenyl)cyclopropane-1,1-dicarboxyamide]: 5 nM and 8.4 nM.
